Strand notation (5' to 3'): a small letter for the sugar, then the base; units joined by * are phosphorothioate-linked, units joined directly phosphodiester-linked; [ ] holds rarer units or linkages, { } end groups; capitals alone tell only the bases. e = 2'-O-(2-methoxyethyl) (MOE); k = constrained ethyl (cEt); [5mC] = 5-methylcytosine; d = 2'-deoxy (DNA); m = 2'-O-methyl
The substances below were run on Yap1 mRNA (assay: Antisense inhibition of human Yap1 in SNU-449 cells by modified oligonucleotides, single dose (Example 5, RTS36584)). Settings: Table 39; SNU-449 cells, 10,000 cells per well, free uptake, 2,000 nM oligonucleotide, approx. 48 hours; RTS36584; normalized to RIBOGREEN; Yap1 mRNA relative to untreated control.
Assay type: cell-based
How it was run: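 Values are % of untreated control: Yap1 mRNA by quantitative RT-PCR (RTS36584), normalized to RIBOGREEN total RNA. Oligonucleotides were dosed at 2,000 nM, free uptake, in SNU-449 cells, with roughly 48 h exposure before RNA isolation.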

Substance | YAP1 (% UTC)
1198435 (kA*dT*dG*dT*dA*dA*dT*dA*dT*dT*dG*k[5mC]*eA*kA*eT*k[5mC]; antisense) [Compound 1198435] | 57 % UTC
1198377 (kA*dT*dG*dG*dA*dA*dA*dT*dT*dG*dT*k[5mC]*eT*k[5mC]*eA*kT; antisense) [Compound 1198377] | 30 % UTC

Same assay, conditions: Table 40 (separate experiment); SNU-449 cells, 10,000 cells per well, free uptake, 2,000 nM oligonucleotide, approx. 48 hours; RTS36584; normalized to RIBOGREEN; Yap1 mRNA relative to untreated control

Substance | YAP1 (% UTC)
1198797 (antisense kA*eA*kG*dT*dA*dA*dG*dG*dT*dT*dT*d[5mC]*e[5mC]*e[5mC]*kA*kG) [Compound 1198797] | 31 % UTC
1198730 (kT*eA*kT*dA*dT*dT*dA*dG*dA*dG*dT*dA*eT*eG*kT*kG; antisense) [Compound 1198730] | 57 % UTC
1198444 (kT*dT*dT*dA*dA*dA*dG*dT*dG*dT*dA*kT*eG*kT*e[5mC]*kA; antisense) [Compound 1198444] | 70 % UTC
1198758 (kA*eT*kA*dG*dT*dG*d[5mC]*dT*dT*dT*dG*dG*eA*eA*kG*kA; antisense) [Compound 1198758] | 47 % UTC

Same assay, conditions: Table 41; SNU-449 cells, 10,000 cells per well, free uptake, 2,000 nM modified oligonucleotide, approximately 48 hours; RTS36584; normalized to RIBOGREEN; Yap1 mRNA relative to untreated control cells

Substance | YAP1 (% UTC)
1198669 (antisense kA*kG*dG*dA*dT*dG*d[5mC]*dA*dT*dG*dG*dT*kT*eT*kT*eT) [Compound 1198669] | 61 % UTC
1198656 (kG*k[5mC]*dA*d[5mC]*dT*dT*dT*dT*dA*d[5mC]*dA*dT*kT*eA*kG*eG; antisense) [Compound 1198656] | 11 % UTC
1198774 (kA*eA*k[5mC]*dT*d[5mC]*dT*dT*dA*dT*dA*dT*dG*eG*eT*kT*kT; antisense) [Compound 1198774] | 106 % UTC

Same assay, conditions: Table 42 (separate experiment); SNU-449 cells, 10,000 cells per well, free uptake, 2,000 nM modified oligonucleotide, approximately 48 hours; RTS36584; normalized to RIBOGREEN; Yap1 mRNA relative to untreated control cells

Substance | YAP1 (% UTC)
1198679 (antisense TTATATGGTTTTGTGT; cEt/MOE gapmer, phosphorothioate, chemistry not fully specified) [Compound 1198679] | 54 % UTC
1198686 (antisense kG*kA*d[5mC]*dA*dA*d[5mC]*dT*d[5mC]*dT*dT*dA*dT*kA*eT*kG*eG) [Compound 1198686] | 78 % UTC
1198204 (kT*kG*dG*dA*dA*dA*dT*dT*dG*dT*d[5mC]*eT*e[5mC]*eA*kT*kG; antisense) [Compound 1198204] | 31 % UTC

Same assay, conditions: Table 43 experiment; SNU-449 cells, 10,000 cells per well, free uptake, 2,000 nM, approximately 48 hours; RTS36584; Yap1 mRNA normalized to RIBOGREEN, relative to untreated control cells

Substance | YAP1 (% UTC)
1095593 (antisense kT*kG*dA*dG*dG*dT*dA*dT*dA*dA*d[5mC]*eT*eG*eG*kG*k[5mC]) [Compound 1095593] | 16 % UTC
1198483 (antisense k[5mC]*kA*d[5mC]*dT*dT*dT*dT*dA*d[5mC]*dA*dT*eT*kA*eG*kG*eA) [Compound 1198483] | 31 % UTC
1198242 (kA*kT*dT*dT*dA*dG*dG*dA*dT*dG*d[5mC]*eA*eT*eG*kG*kT; antisense) [Compound 1198242] | 47 % UTC
1198479 (antisense kT*kT*dA*d[5mC]*dA*dT*dT*dA*dG*dG*dA*eA*k[5mC]*eA*kA*eG) [Compound 1198479] | 65 % UTC

Same assay, conditions: Table 44 experiment; SNU-449 cells, 10,000 cells per well, free uptake, 2,000 nM, approximately 48 hours; RTS36584; Yap1 mRNA normalized to RIBOGREEN, relative to untreated control cells

Substance | YAP1 (% UTC)
1198527 (kA*kA*dA*dG*dT*dG*dT*dA*dT*dG*dT*e[5mC]*kA*eG*kA*eA; antisense) [Compound 1198527] | 5 % UTC
1198523 (kT*kT*dT*dA*dT*dG*dT*dA*dA*dT*dA*eT*kT*eG*k[5mC]*eA; antisense) [Compound 1198523] | 93 % UTC
1198491 (antisense k[5mC]*kT*dT*dT*dG*dG*dA*dA*dG*dA*dT*e[5mC]*kT*eG*kA*eA) [Compound 1198491] | 22 % UTC
1198495 (antisense kA*kG*dT*dG*d[5mC]*dT*dT*dT*dG*dG*dA*eA*kG*eA*kT*e[5mC]) [Compound 1198495] | 22 % UTC

Same assay, conditions: Table 45; Yap1 mRNA as percent of untreated control, SNU-449 cells, single dose

Substance | YAP1 (% UTC)
1198975 (kT*kT*dA*dG*dA*d[5mC]*dT*dA*dA*dG*dT*kA*dA*kG*dG*kT; antisense) [Compound 1198975] | 52 % UTC
1198948 (kG*kA*d[5mC]*dA*dA*d[5mC]*dT*d[5mC]*dT*dT*dA*kT*dA*kT*dG*kG; antisense) [Compound 1198948] | 96 % UTC
1095510 (antisense k[5mC]*kT*dG*dA*dG*dG*dT*dA*dT*dA*dA*k[5mC]*dT*kG*dG*kG) [Compound 1095510] | 35 % UTC
1198964 (kT*kT*dT*dA*dA*dA*dG*dT*dG*dT*dA*kT*dG*kT*d[5mC]*kA; antisense) [Compound 1198964] | 59 % UTC
1198950 (kA*kT*dA*dT*dT*dG*d[5mC]*dA*dA*dT*d[5mC]*kT*dG*kT*d[5mC]*kT; antisense) [Compound 1198950] | 85 % UTC

Same assay, conditions: Table 46; Yap1 mRNA as percent of untreated control, SNU-449 cells, single dose

Substance | YAP1 (% UT)
1198863 (kA*kT*dT*dG*d[5mC]*dA*dA*dT*d[5mC]*dT*dG*kT*e[5mC]*kT*eG*kA; antisense) [Compound 1198863] | 65 % UT
1198814 (antisense kA*kG*dA*dG*dT*dA*dT*dG*dT*dG*dG*k[5mC]*eA*kA*eT*kA) [Compound 1198814] | 13 % UT

Same assay, conditions: Table 48; Yap1 mRNA level relative to untreated control; modified oligonucleotides targeting SEQ ID NO.: 1 and 2

Substance | YAP1 (% UT)
1197202 (antisense kA*k[5mC]*kT*d[5mC]*dT*dT*dA*dT*dA*dT*dG*dG*dT*kT*kT*kT) [Compound 1197202] | 27 % UT
1198301 (kT*k[5mC]*kT*dA*dT*dA*dT*dT*dA*dG*dA*dG*kT*eA*kT*eG; antisense) [Compound 1198301] | 43 % UT

Same assay, conditions: Table 49; Yap1 mRNA level relative to untreated control; modified oligonucleotides targeting SEQ ID NO.: 1 and 2

Substance | YAP1 (% UT)
1198573 (antisense kT*kT*kA*dA*dG*d[5mC]*dA*d[5mC]*dT*dT*dT*dT*kA*k[5mC]*kA*eT) [Compound 1198573] | 76 % UT
1198572 (antisense kA*kA*kG*d[5mC]*dA*d[5mC]*dT*dT*dT*dT*dA*d[5mC]*kA*kT*kT*eA) [Compound 1198572] | 53 % UT

Same assay, conditions: Table 50; Yap1 mRNA remaining as percent of untreated control (UT), SNU-449 cells, single dose

Substance | YAP1 (% UT)
1198591 (antisense kA*kT*kT*d[5mC]*dA*dG*dA*dT*dT*dT*dA*dG*kG*kA*kT*eG) [Compound 1198591] | 106 % UT
1198597 (antisense kA*k[5mC]*kT*d[5mC]*dT*dT*dA*dT*dA*dT*dG*dG*kT*kT*kT*eT) [Compound 1198597] | 27 % UT
1198627 (kT*kT*kA*dG*dA*d[5mC]*dT*dA*dA*dG*dT*dA*kA*kG*kG*eT; antisense) [Compound 1198627] | 39 % UT
1197282 (kA*kA*kA*dT*mU*dG*dT*d[5mC]*dT*d[5mC]*dA*dT*dG*k[5mC]*k[5mC]*kT) [Compound 1197282] | 40 % UT

Same assay, conditions: Table 51; Yap1 mRNA remaining as percent of untreated control (UT), SNU-449 cells, single dose

Substance | YAP1 (% UT)
1197242 (antisense k[5mC]*kA*k[5mC]*dT*mG*dA*dG*dG*dT*dA*dT*dA*dA*k[5mC]*kT*kG) [Compound 1197242] | 46 % UT
1197300 (kG*kA*kT*dT*mU*dA*dG*dG*dA*dT*dG*d[5mC]*dA*kT*kG*kG; antisense) [Compound 1197300] | 42 % UT

Same assay, conditions: Table 52; Yap1 mRNA, modified oligonucleotides targeting SEQ ID NO: 1 and 2

Substance | YAP1 (% UT)
1200826 (kG*kT*kG*d[5mC]*dT*mU*dT*dG*dG*dA*dA*dG*dA*kT*k[5mC]*kT; antisense) [Compound 1200826] | 26 % UT
1200837 (kA*kT*kT*d[5mC]*dA*mG*dA*dT*dT*dT*dA*dG*dG*kA*kT*kG; antisense) [Compound 1200837] | 82 % UT

Same assay, conditions: Yap1 mRNA, percent of untreated control; modified oligonucleotides targeting SEQ ID NO: 1 and 2; Table 47

Substance | YAP1 (% UT)
1197198 (antisense kA*kT*kT*d[5mC]*dA*dG*dA*dT*dT*dT*dA*dG*dG*kA*kT*kG) [Compound 1197198] | 139 % UT
1197178 (antisense kA*kA*kT*dT*dG*dT*d[5mC]*dT*d[5mC]*dA*dT*dG*d[5mC]*k[5mC]*kT*kT) [Compound 1197178] | 12 % UT
1197179 (antisense kT*kG*kG*dA*dA*dA*dT*dT*dG*dT*d[5mC]*dT*d[5mC]*kA*kT*kG) [Compound 1197179] | 16 % UT

Reference: patent publication US11214803B2, “Modulators of YAP1 expression” (Ionis Pharmaceuticals, Inc., priority 2019, dated 2022)
